Measurements taken from ChEMBL document CHEMBL5252515, “Discovery of 6-Amino-2-{[(1S)-1-methylbutyl]oxy}-9-[5-(1-piperidinyl)pentyl]-7,9-dihydro-8H-purin-8-one (GSK2245035), a Highly Potent and Selective Intranasal Toll-Like Receptor 7 Agonist for the Treatment of Asthma” (J Med Chem, 2016).

Legend:
Format in all cases: cell-based
Toll-like receptor 7 [1] = target: T1, Toll-like receptor 7 (Homo sapiens, UniProt Q9NYK1); experiment: Agonist activity at TLR7 in human PBMC assessed as TNF-alpha production after 24 hrs by electrochemiluminescence assay
T1 sequence (Q9NYK1 whole entry): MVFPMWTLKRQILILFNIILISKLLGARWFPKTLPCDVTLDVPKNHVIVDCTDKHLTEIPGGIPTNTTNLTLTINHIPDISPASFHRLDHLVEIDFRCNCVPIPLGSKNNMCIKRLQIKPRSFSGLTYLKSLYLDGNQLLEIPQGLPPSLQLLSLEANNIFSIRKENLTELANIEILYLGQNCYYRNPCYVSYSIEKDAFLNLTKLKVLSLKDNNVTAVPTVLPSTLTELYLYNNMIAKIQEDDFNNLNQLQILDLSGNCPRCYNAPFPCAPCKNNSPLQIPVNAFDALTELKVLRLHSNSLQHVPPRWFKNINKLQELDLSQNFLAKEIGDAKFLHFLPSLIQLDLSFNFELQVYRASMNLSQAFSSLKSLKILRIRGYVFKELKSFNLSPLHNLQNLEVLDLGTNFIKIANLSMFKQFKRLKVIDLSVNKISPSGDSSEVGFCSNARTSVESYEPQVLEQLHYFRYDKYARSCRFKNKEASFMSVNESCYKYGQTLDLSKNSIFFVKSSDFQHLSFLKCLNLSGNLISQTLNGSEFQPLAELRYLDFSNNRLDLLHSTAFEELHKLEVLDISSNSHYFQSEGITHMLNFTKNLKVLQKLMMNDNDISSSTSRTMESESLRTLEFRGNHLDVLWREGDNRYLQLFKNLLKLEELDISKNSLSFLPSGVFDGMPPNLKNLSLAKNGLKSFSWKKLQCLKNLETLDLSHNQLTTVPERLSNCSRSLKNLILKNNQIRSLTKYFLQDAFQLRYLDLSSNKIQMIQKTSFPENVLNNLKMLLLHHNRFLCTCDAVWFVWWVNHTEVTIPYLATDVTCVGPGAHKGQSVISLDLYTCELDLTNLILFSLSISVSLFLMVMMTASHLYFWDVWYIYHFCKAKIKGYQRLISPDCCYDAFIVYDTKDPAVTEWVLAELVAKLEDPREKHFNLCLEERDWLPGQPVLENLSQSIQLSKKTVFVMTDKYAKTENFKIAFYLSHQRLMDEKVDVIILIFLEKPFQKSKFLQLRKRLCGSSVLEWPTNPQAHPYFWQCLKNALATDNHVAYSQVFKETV

Toll-like receptor 7 [2] = target: T1, Toll-like receptor 7; experiment: Agonist activity at TLR7 in human PBMC assessed as IFN-alpha production after 24 hrs by electrochemiluminescence assay
Toll-like receptor 7 [3] = target: T1, Toll-like receptor 7; experiment: Agonist activity at TLR7 in cryopreserved human PBMC assessed as IFN-alpha production after 24 hrs by MSD assay

SMILES | EC50 (Toll-like receptor 7 [1]) | EC50 (Toll-like receptor 7 [2]) | EC50 (Toll-like receptor 7 [3])
CCC[C@H](C)Oc1nc(N)c2[nH]c(=O)n(CCCCC3CCOCC3)c2n1 | 126 nM | 39.8 nM | 
CC(C)Oc1nc(N)c2[nH]c(=O)n(CCCCCN3CCCCC3)c2n1 | 12600 nM | 1 nM | 
CCCCOc1nc(N)c2nc(O)n(CCCN3CCCCC3)c2n1 |  |  | 316 nM
CCCCOc1nc(N)c2[nH]c(=O)n(CC3CCOCC3)c2n1 |  |  | 200 nM
CCC[C@H](C)Oc1nc(N)c2[nH]c(=O)n(CCCCN3CCCCC3)c2n1 | 2510 nM | 0.794 nM | 
CCCCOc1nc(N)c2[nH]c(=O)n(CCCCN3CCCC3)c2n1 | 15800 nM | 20 nM | 
CCCCOc1nc(N)c2[nH]c(=O)n(CCCCC3CCCCO3)c2n1 (stereo not given) |  |  | 316 nM
CCCCOc1nc(N)c2[nH]c(=O)n(CCCCC3CCOC3)c2n1 (stereo not given) |  |  | 63.1 nM
CCCCOc1nc(N)c2[nH]c(=O)n(CCCCC3CCCOC3)c2n1 (stereo not given) |  |  | 39.8 nM
CC[C@H](C)Oc1nc(N)c2[nH]c(=O)n(CCCCCN3CCCCC3)c2n1 | 10000 nM | 0.501 nM | 
CCCCOc1nc(N)c2[nH]c(=O)n(CCCCN3CCCCC3)c2n1 | 6310 nM | 6.31 nM | 
CCCCOc1nc(N)c2[nH]c(=O)n(CCN3CCCCC3)c2n1 |  |  | 2510 nM
CCCC[C@H](C)Oc1nc(N)c2[nH]c(=O)n(CCCCN3CCCCC3)c2n1 | 2510 nM | 0.631 nM | 
CCCCOc1nc(N)c2[nH]c(=O)n(CCC3CCOCC3)c2n1 |  |  | 200 nM
CCCCOc1nc(N)c2[nH]c(=O)n(CCCCC3CCCO3)c2n1 (stereo not given) |  |  | 158 nM
CCCCOc1nc(N)c2[nH]c(=O)n(CCCCCCN3CCCCC3)c2n1 | 2000 nM | 1.58 nM | 
CCCCOc1nc(N)c2[nH]c(=O)n(CCCCCN3CCCCC3)c2n1 | 5010 nM | 7.94 nM | 
CCCCOc1nc(N)c2[nH]c(=O)n(CCCCC3CCOCC3)c2n1 |  |  | 100 nM
Nc1nc(OC2CCCC2)nc2c1[nH]c(=O)n2CCCCN1CCCCC1 | 12600 nM | 1000 nM | 
CCCCOc1nc(N)c2[nH]c(=O)n(CCCCN3CCOCC3)c2n1 | 3980 nM | 200 nM | 
CCCCOc1nc(N)c2nc(O)n(Cc3ccccc3)c2n1 |  |  | 126 nM
CCCCOc1nc(N)c2[nH]c(=O)n(CCCCN3CCCCCC3)c2n1 | 6310 nM | 1.58 nM | 
CCCCOc1nc(N)c2[nH]c(=O)n(CCCCC3CCNCC3)c2n1 | 631 nM | 0.631 nM | 
CCCCOc1nc(N)c2[nH]c(=O)n(CCCCC3CCCNC3)c2n1 (stereo not given) | 1000 nM | 2.51 nM | 
CCCCOc1nc(N)c2[nH]c(=O)n(CCCCC3CCN(C(C)C)CC3)c2n1 | 6310 nM | 0.794 nM | 
CCCCOc1nc(N)c2[nH]c(=O)n(CCCCCC3CCOCC3)c2n1 |  |  | 50.1 nM
CCCCOc1nc(N)c2[nH]c(=O)n(CCCCN3CCN(C(C)C)CC3)c2n1 | 6310 nM | 2.51 nM | 
CCCCOc1nc(N)c2[nH]c(=O)n(CCCC3CCOCC3)c2n1 |  |  | 63.1 nM
CCCCOc1nc(N)c2[nH]c(=O)n(CCCCCCC3CCOCC3)c2n1 |  |  | 794 nM
